# Data published in patent publication US6329395A, “Neuropeptide Y5 receptor antagonists” (Schering Corporation, priority 1999, dated 2001).
# Where two headings read alike, the source gives them in different places.
# Biological target: T1, neuropeptide Y5 receptor (Homo sapiens, UniProt Q15761)
# T1 construct: expressed in transfected cells; host or cells: CHO cells (membranes)
# T1 sequence (Q15761 1-445): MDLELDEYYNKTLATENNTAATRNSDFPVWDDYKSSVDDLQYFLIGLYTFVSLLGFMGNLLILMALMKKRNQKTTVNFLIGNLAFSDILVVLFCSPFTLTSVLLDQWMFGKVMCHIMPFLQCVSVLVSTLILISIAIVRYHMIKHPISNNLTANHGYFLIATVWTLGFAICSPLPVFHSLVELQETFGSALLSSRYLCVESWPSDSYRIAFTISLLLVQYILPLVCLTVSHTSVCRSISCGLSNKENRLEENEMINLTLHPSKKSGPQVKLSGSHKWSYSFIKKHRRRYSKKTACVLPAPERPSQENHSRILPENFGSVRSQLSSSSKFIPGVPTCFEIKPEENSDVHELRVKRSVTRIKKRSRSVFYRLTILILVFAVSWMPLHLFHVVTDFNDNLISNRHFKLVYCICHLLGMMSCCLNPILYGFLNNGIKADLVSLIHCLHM
# Assay: NPY Receptor Binding Assay (125I-peptide YY, CHO cell membranes, neuropeptide Y5 receptor)
# Description: Human NPY receptors were expressed in CHO cells. Binding assays were performed in 50 mM HEPES, pH. […] Non-specific binding was determined in the presence of 1 uM NPY. The reaction mixtures were incubated for 90 minutes at 30° C. (NPY1 receptor) or at room temperature (NPY2, NPY4 and NPY5 receptors), then filtered through Millipore MAFC glass fiber filter plates which had been pre-soaked in 0.5% polyethyleneimine. The filters were washed with phosphate-buffered saline, and radioactivity was measured in a Packard TopCount scintillation counter.
# [1] = neuropeptide Y5 receptor binding, 0.1 nM 125I-peptide YY, room temperature, 90 minutes, pH 7.2, r/h Y5, read-out: r/h Y5 Ki
Ki [1] [nM],Structure (SMILES),Ki [nM]
–,CN(C)C(=O)Nc1ccc(SC(C)(C)C)cc1 [Example 1M],152
3,CCCC(C)(C)Sc1ccc(NC(=O)C(C)(C)C)cc1 [Example 1],–
697,CCCC(C)(C)Sc1ccc(NC(=O)NC2CCN(C)CC2)cc1 [Example 2Al],–
50,CCCC(C)(C)Sc1ccc(NC(=O)N(C)CCCN(C)C)cc1 [Example 2X],–
9,CCCC(C)(C)Sc1ccc(NC(=O)C(C)(C)C)cc1F [Example 3],–
668,CCCC(C)(C)Oc1ccc(NC(=O)CC(C)(C)C)cc1 [Example 6C],–
66,CCCCC1(Oc2ccc(NC(=O)N(C)c3ccccc3)cc2)CCCC1 [Example 6N],–
13,CCCC(C)(C)Oc1ccc(NC(=O)C(C)(C)C)cc1 [Example 6],–
18,CCCC(C)(C)Sc1ccc(NC(=O)C(C)(C)N2CCN(c3ccccc3)CC2)cc1 [Example 8D],–
0.8,CCCC(C)(C)Sc1ccc(NC(=O)N(C)C2CCN(S(C)(=O)=O)CC2)cc1 [Example 13A],–
0.4,CCC(C)(C)CCc1ccc(NC(=O)N(C)CCc2ccncc2)cc1 [Example 19],–
